Test results from ChEMBL document CHEMBL1154410, “In vivo efficacy of a novel oxazolidinone compound in two mouse models of infection” (Antimicrob Agents Chemother, 2007).
Values after ≈ are worked out from the molar mass of the structure shown. Active and inactive are the calls of the source. No cut-off for these calls is given here.

What was measured:
[1] = test system: Staphylococcus aureus; assay: Antibacterial activity against methicillin-susceptible Staphylococcus aureus Smith infected in C3H mouse assessed as eradication at 12.5 mg/kg/day, iv administered within 15 mins of infection assessed per gram of kidney measured after 48 hrs by organ burden assay relative to control; assay type: functional
[2] = test system: Staphylococcus aureus; assay: Antibacterial activity against methicillin-susceptible Staphylococcus aureus Smith infected in C3H mouse assessed as reduction in log number of CFU at 25 mg/kg/day, iv administered within 15 mins of infection measured after 48 hrs by organ burden assay relative to control; assay type: functional
[3] = test system: Staphylococcus aureus; assay: Antibacterial activity against methicillin-susceptible Staphylococcus aureus Smith infected in C3H mouse assessed as eradication at 3.12 mg/kg/day, po administered within 15 mins of infection assessed per gram of kidney measured after 48 hrs by organ burden assay relative to control; assay type: functional
[4] = test system: Staphylococcus aureus; assay: Antibacterial activity against methicillin-susceptible Staphylococcus aureus Smith infected in C3H mouse assessed as eradication at 3.12 mg/kg/day, iv administered within 15 mins of infection assessed per gram of kidney measured after 48 hrs by organ burden assay relative to control; assay type: functional
[5] = test system: Enterococcus; assay: Antibacterial activity against vancomycin-resistant Enterococcus spp.; assay type: functional, organism-based
[6] = test system: Staphylococcus aureus; assay: Antibacterial activity against methicillin-susceptible Staphylococcus aureus Smith infected in C3H mouse assessed as eradication at 25 mg/kg/day, iv administered within 15 mins of infection assessed per gram of kidney measured after 48 hrs by organ burden assay relative to control; assay type: functional
[7] = test system: Staphylococcus aureus; assay: (§1) Antibacterial activity against methicillin-resistant Staphylococcus aureus COL infected in po dosed DBA/2 mouse localized infection model assessed as log reduction in CFU per gram of thigh at 10 mg/kg, iv administered 2 hrs postinfection thrice daily for 1 day and once daily for 1 day measured after 48 hrs by organ burden assay relative to control; assay type: functional
[8] = test system: Staphylococcus aureus; assay: Antibacterial activity against methicillin-susceptible Staphylococcus aureus Smith infected in iv dosed C3H mouse localized infection model assessed as reduction of number of CFU per gram of kidney administered 15 mins after infection measured after 48 hrs relative to control; assay type: functional
[9] = test system: Staphylococcus aureus; assay: Antibacterial activity against methicillin-resistant Staphylococcus aureus; assay type: functional, organism-based
[10] = test system: Staphylococcus aureus; assay: Antibacterial activity against methicillin-susceptible Staphylococcus aureus Smith infected in C3H mouse assessed as reduction in log number of CFU at 6.25 mg/kg/day, po administered within 15 mins of infection measured after 48 hrs by organ burden assay relative to control; assay type: functional
[11] = test system: Staphylococcus aureus; assay: Antibacterial activity against methicillin-susceptible Staphylococcus aureus Smith infected in C3H mouse assessed as reduction in log number of CFU at 12.5 mg/kg/day, iv administered within 15 mins of infection measured after 48 hrs by organ burden assay relative to control; assay type: functional
[12] = test system: Staphylococcus aureus; assay: (§2) Antibacterial activity against linezolid-resistant methicillin-resistant Staphylococcus aureus infected in po dosed C3H mouse localized infection model assessed as reduction of number of CFU per gram of thigh administered 2 hrs postinfection thrice daily for 1 day and once daily for 5 days measured after 48 hrs relative to control; assay type: functional; settings: Thigh muscle
[13] = test system: Staphylococcus aureus; assay: Antibacterial activity against methicillin-susceptible Staphylococcus aureus Smith infected in C3H mouse assessed as eradication at 25 mg/kg/day, po administered within 15 mins of infection assessed per gram of kidney measured after 48 hrs by organ burden assay relative to control; assay type: functional
[14] = test system: Staphylococcus aureus; assay: as §1, with “thigh at 5 mg/kg, po” for “thigh at 10 mg/kg, iv”, “5 mg/kg, po administered 2” for “10 mg/kg, iv administered 2”, “daily for 5 days measured after” for “daily for 1 day measured after”; assay type: functional
[15] = test system: Staphylococcus aureus; assay: Antibacterial activity against methicillin-susceptible Staphylococcus aureus Smith by dilution susceptibility test; assay type: functional
[16] = test system: Staphylococcus aureus; assay: Antibacterial activity against methicillin-susceptible Staphylococcus aureus Smith infected in C3H mouse assessed as eradication at 6.25 mg/kg/day, po administered within 15 mins of infection assessed per gram of kidney measured after 48 hrs by organ burden assay relative to control; assay type: functional
[17] = test system: Staphylococcus aureus; assay: Antibacterial activity against methicillin-susceptible Staphylococcus aureus Smith infected in C3H mouse assessed as reduction in log number of CFU at 12.5 mg/kg/day, po administered within 15 mins of infection measured after 48 hrs by organ burden assay relative to control; assay type: functional
[18] = test system: Staphylococcus aureus; assay: Antibacterial activity against methicillin-susceptible Staphylococcus aureus Smith infected in C3H mouse assessed as eradication at 6.25 mg/kg/day, iv administered within 15 mins of infection assessed per gram of kidney measured after 48 hrs by organ burden assay relative to control; assay type: functional
[19] = Bioavailability in Staphylococcus aureus-infected mouse localized thigh infection model at 25 mg/kg; assay type: ADME, organism-based; settings: in vivo
[20] = test system: Staphylococcus aureus; assay: Antibacterial activity against 10^9 CFU linezolid-resistant methicillin-resistant Staphylococcus aureus by dilution susceptibility test; assay type: functional
[21] = test system: Staphylococcus aureus; assay: Antibacterial activity against methicillin-susceptible Staphylococcus aureus Smith infected in C3H mouse assessed as reduction in log number of CFU at 3.12 mg/kg/day, iv administered within 15 mins of infection measured after 48 hrs by organ burden assay relative to control; assay type: functional
[22] = test system: Staphylococcus aureus; assay: Antibacterial activity against methicillin-susceptible Staphylococcus aureus Smith infected in C3H mouse assessed as reduction in log number of CFU at 3.12 mg/kg/day, po administered within 15 mins of infection measured after 48 hrs by organ burden assay relative to control; assay type: functional
[23] = test system: Streptococcus pneumoniae; assay: Antibacterial activity against penicillin-resistant Streptococcus pneumoniae; assay type: functional, organism-based
[24] = test system: Staphylococcus aureus; assay: as §2, with “against” for “against linezolid-resistant”, “aureus COL” for “aureus”, “DBA/2” for “C3H”; assay type: functional
[25] = test system: Staphylococcus aureus; assay: Antibacterial activity against 3.6 x 10^8 CFU methicillin-resistant Staphylococcus aureus COL by dilution susceptibility test; assay type: functional
[26] = Fraction unbound in Staphylococcus aureus-infected mouse localized thigh infection model plasma at 25 mg/kg; assay type: ADME, organism-based; parameters: dose 25 mg/kg; settings: read-out: PPB
[27] = test system: Staphylococcus aureus; assay: as §1, with “5” for “10”; assay type: functional
[28] = test system: Staphylococcus aureus; assay: Antibacterial activity against methicillin-susceptible Staphylococcus aureus Smith infected in C3H mouse assessed as eradication at 12.5 mg/kg/day, po administered within 15 mins of infection assessed per gram of kidney measured after 48 hrs by organ burden assay relative to control; assay type: functional
[29] = test system: Staphylococcus aureus; assay: Antibacterial activity against methicillin-susceptible Staphylococcus aureus Smith infected in C3H mouse assessed as reduction in log number of CFU at 6.25 mg/kg/day, iv administered within 15 mins of infection measured after 48 hrs by organ burden assay relative to control; assay type: functional
[30] = test system: Staphylococcus aureus; assay: as §1, with “10 mg/kg, po administered 2” for “10 mg/kg, iv administered 2”, “daily for 5 days measured after” for “daily for 1 day measured after”; assay type: functional
[31] = test system: Staphylococcus aureus; assay: Antibacterial activity against methicillin-susceptible Staphylococcus aureus Smith infected in C3H mouse assessed as reduction in log number of CFU at 25 mg/kg/day, po administered within 15 mins of infection measured after 48 hrs by organ burden assay relative to control; assay type: functional
[32] = test system: Haemophilus influenzae; assay: Antibacterial activity against Haemophilus influenzae by dilution susceptibility test; assay type: functional
[33] = test system: Staphylococcus aureus; assay: Antibacterial activity against methicillin-susceptible Staphylococcus aureus Smith infected in po dosed C3H mouse localized infection model assessed as reduction of number of CFU per gram of kidney administered 15 mins after infection measured after 48 hrs relative to control; assay type: functional
[34] = test system: Moraxella catarrhalis; assay: Antibacterial activity against Moraxella catarrhalis by dilution susceptibility test; assay type: functional
[35] = test system: Staphylococcus aureus; assay: as §2, with “against” for “against linezolid-resistant”, “aureus COL” for “aureus”, “in iv” for “in po”, “dosed DBA/2” for “dosed C3H”, “for 1 day” for “for 5 days”; assay type: functional
[36] = test system: Staphylococcus aureus; assay: Antibacterial activity against methicillin-susceptible Staphylococcus aureus Smith infected in C3H mouse assessed as renal sterilization at 25 mg/kg/day, po administered 15 mins postinfection; assay type: functional, organism-based
[37] = test system: Staphylococcus aureus; assay: Antibacterial activity against linezolid-resistant methicillin-resistant Staphylococcus aureus infected in C3H mouse localized infection model assessed as log reduction in CFU per gram of thigh at 100 mg/kg measured after 48 hrs by organ burden assay relative to control; assay type: functional

Structure (SMILES) | Activity [1] [%] | Activity [2] | Activity [3] [%] | Activity [4] [%] | Activity [6] [%] | log10cfu [7] | ED99 [8] [mg/kg] | Activity [10] | Activity [11] | ED99 [12] [mg/kg] | Activity [13] [%] | log10cfu [14] | Activity [16] [%] | Activity [17] | Activity [18] [%] | MIC [20] [µg/mL] | Activity [21] | Activity [22] | ED99 [24] [mg/kg] | MIC [25] [µg/mL] | other results
N#C[C@]1(c2ccc(-c3ccc(N4C[C@H](Cn5ccnn5)OC4=O)cc3F)cn2)[C@@H]2CNC[C@@H]21 | 0 | 4.59 | 0 | 0 | 0 | 1.5 | 6.3 | 2.63 | 4.46 | 10.2 | 0 | 2 | 0 | 2.93 | 0 | 1 (≈ 2.24 µM) | 0.06 | -0.26 | 4.2 | 0.125 (≈ 0.281 µM) | Activity [5]: Active; Activity [9]: Active; MIC [15]: 0.125 µg/mL (≈ 0.281 µM); bioavailability [19]: 30%; Activity [23]: Active; fraction unbound [26]: 0.19; log10cfu [27]: 2.4; Activity [28]: 0%; Activity [29]: 2.03; log10cfu [30]: 3.7; Activity [31]: 5.23; MIC90 [32]: 2 µg/mL (≈ 4.49 µM); ED99 [33]: 4.9 mg/kg; MIC90 [34]: 0.5 µg/mL (≈ 1.12 µM); ED99 [35]: 5.6 mg/kg
CC(=O)NC[C@H]1CN(c2ccc(N3CCOCC3)c(F)c2)C(=O)O1 [LINEZOLID] | 0 | 4.27 | 0 | 0 | 0 | 1.5 | 12 | 1.44 | 1.44 | 85 | 100 | 2 | 0 | 2.71 | 0 | 64 (≈ 190 µM) | -0.27 | -0.53 | 5.2 | 1 (≈ 2.96 µM) | Activity [36]: Active; log10cfu [37]: 2.5; fraction unbound [26]: 0.68; log10cfu [27]: 2.4; Activity [28]: 0%; Activity [29]: -0.12; log10cfu [30]: 3.7; Activity [31]: 6.07; ED99 [33]: 7 mg/kg; ED99 [35]: 6.9 mg/kg
